Experimental data published in patent US9440957B2, “Compounds and compositions for modulating EGFR Activity” (Novartis AG, priority 2012, dated 2016).
Like-named read-outs stand apart in the source and are kept apart here.

Tests used:
H1975 (EGFR L858/T790M) = H1975 (EGFR L858/T790M) (Homo sapiens, UniProt P00533, L858R/T790M); assay: EGFR target modulation in H1975 cell line (phospho-EGFR Y1173 ELISA); type: cell-based
Description: (§1) EGFR Target Modulation in H1975, H3255 and HCC827 Cell Lines Tissue Culture. Cells were maintained in 10% FBS/RPMI supplemented with 100 μg/ml Penicillin/Streptomycin (Hyclone #SH30236.01). […] The cells were allowed to incubate overnight in a 37° C., 5% CO2 humidified tissue culture incubator. […] The serial diluted compounds were transferred to the plate containing cells by using a 50 nl Pin Head device (Perkin Elmer) and the cells were placed back in the incubator for 3 hours. Phospho-EGFR ([…]) Target Modulation Assay. The media was reduced to 20 ul using a Bio-Tek ELx 405 SelectTM plate washer. […] The plates were shaken at 4° C. for 20 minutes. An aliquot of 25 ul from each well was transferred to pEGFR(Y1173) ELISA plates for analysis. Phospho-EGFR ([…]) ELISA. Solid white high-binding ELISA plates (Greiner #781074) were coated with 5 ug/ml anti-EGFR capture antibody (R&D Systems #AF231) overnight in 50 mM carbonate/bicarbonate pH 9.5 buffer. Plates were blocked with 1% BSA (Sigma #A7030) in PBS for 1 hour at room temperature. Wash steps were carried out with a Bio-Tek ELx405 SelectTM using 4 cycles of 100 ul TBS-T (20 mM Tris, 137 mM NaCl, 0.05% Tween-20) per well. […] Lysis was allowed to occur for 20 minutes on ice. A 25 ul aliquot was added to each well of the blocked ELISA plate and incubated overnight at 4° C. with gentle shaking. […] After washing, 1:2,000 anti-rabbit-HRP (Cell Signaling #7074) in 0.2% BSA/TBS-T was added and incubated for 1 hour at room temperature. Chemiluminescent detection was carried out with SuperSignal ELISA Pico substrate (ThermoScientific #37069). Signal was read on EnVision plate reader using built-in UltraLUM setting. Data Analysis. Control cells treated with EGF were set to 100% maximum response. […] With these parameters, the IC50's for each compound in each cell line was calculated using non-linear curve fitting analysis.

H3255 (EGFR L858R) = H3255 (EGFR L858R) (Homo sapiens, UniProt P00533, L858R); assay: EGFR target modulation in H3255 cell line (phospho-EGFR Y1173 ELISA); type: cell-based
Description: as §1

[1] = target: human EGFR L858R (NIH/3T3 cells) (Homo sapiens, UniProt P00533, L858R); assay: EGFR target modulation in engineered NIH/3T3 cell lines (phospho-EGFR Y1068 AlphaLISA), EGFR L858R; type: cell-based; details: engineered NIH/3T3 cells, read-out: NIH3T3 IC50 (μM) EGFR (L858R)
Summary of the method: (§2)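 Read-out is phospho-Y1068 AlphaLISA on cell lysates, with anti-total EGFR at 1 nM final equilibrated 1 h at room temperature. Cells were dosed 3 h with a 12-point 1:3 series starting from a 10 μM stock. Only the WT line received 50 ng/ml EGF for 5 min.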

HEKn (EGFR WT) = HEKn (EGFR WT) (Homo sapiens, UniProt P00533); assay: EGFR target modulation in HEKn (EGFR-WT) cell line (phospho-EGFR Y1173 ELISA); type: cell-based; details: value outside parentheses
Description: EGFR Target Modulation in HEKn (EGFR-WT) Cell Line Tissue Culture. Human neonatal epithelial keratinocytes (Invitrogen #C-001-5C) were maintained in EpiLife media (Invitrogen #[…]) supplemented with growth factors (Invitrogen #S-001-5). Cells were harvested with 0.05% Trypsin/EDTA (Hyclone #SH30236.01) and quenched with 5% FBS/EpiLife media. […] The serial diluted compounds were transferred to the plate containing cells by using a 50 nl Pin Head device (Perkin Elmer) and the cells were placed back in the incubator for 3 hours. […] Phospho-EGFR (Y1173) ELISA. Solid white high-binding ELISA plates (Greiner #781074) were coated with 5 ug/ml anti-EGFR capture antibody (R&D Systems #AF231) overnight in 50 mM carbonate/bicarbonate pH 9.5 buffer. […] Wash steps were carried out with a Bio-Tek ELx405 SelectTM using 4 cycles of 100 ul TBS-T (20 mM Tris, 137 mM NaCl, 0.05% Tween-20) per well. […] Lysis was allowed to occur for 20 minutes on ice. A 25 ul aliquot was added to each well of the blocked ELISA plate and incubated overnight at 4° C. with gentle shaking. […] After washing, 1:2,000 anti-rabbit-HRP (Cell Signaling #7074) in 0.2% BSA/TBS-T was added and incubated for 1 hour at room temperature. Chemiluminescent detection was carried out with SuperSignal ELISA Pico substrate (ThermoScientific #37069). Signal was read on EnVision plate reader using built-in UltraLUM setting. Data Analysis. Control cells treated with EGF were set to 100% maximum response. […] With these parameters, the IC50's for each compound in each cell line was calculated using non-linear curve fitting analysis.

EGFR(L858R/T790M) = target: T1, EGFR(L858R/T790M) (Homo sapiens, UniProt P00533, L858R/T790M); assay: EGFR biochemical assay (HTRF), IC50 determinations
T1 construct: purchased from Carna (GST-a.a. 669-1210)
Summary of the method: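 Two formats were run: compound preincubated at room temperature with enzyme and biotin-TK peptide before ATP starts the reaction, or no preincubation with enzyme added last. Reactions ran 60 min at room temperature and were stopped with EDTA. Phosphopeptide was read by HTRF (PT66K/SAXL, 1 h).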

[2] = target: human EGFR WT (NIH/3T3 cells, EGF-induced) (Homo sapiens, UniProt P00533); assay: EGFR target modulation in engineered NIH/3T3 cell lines (phospho-EGFR Y1068 AlphaLISA), EGFR WT; type: cell-based; details: engineered NIH/3T3 cells, read-out: NIH3T3 IC50 (μM) EGFR (WT)
Summary of the method: as §2

[3] = target: human EGFR L858R/T790M (NIH/3T3 cells) (Homo sapiens, UniProt P00533, L858R/T790M); assay: EGFR target modulation in engineered NIH/3T3 cell lines (phospho-EGFR Y1068 AlphaLISA), EGFR L858R/T790M; type: cell-based; details: engineered NIH/3T3 cells, read-out: NIH3T3 IC50 (μM) EGFR (L858R/T790M)
Summary of the method: as §2

[4] = EGFR (L858R/T790M) with 90 min pre-incubation, read-out: IC50 (μM) Column B
[5] = EGFR (L858R/T790M) with no pre-incubation, read-out: IC50 (μM) Column A

Chain of H3255 (EGFR L858R) (P00533 25-1210 L858R): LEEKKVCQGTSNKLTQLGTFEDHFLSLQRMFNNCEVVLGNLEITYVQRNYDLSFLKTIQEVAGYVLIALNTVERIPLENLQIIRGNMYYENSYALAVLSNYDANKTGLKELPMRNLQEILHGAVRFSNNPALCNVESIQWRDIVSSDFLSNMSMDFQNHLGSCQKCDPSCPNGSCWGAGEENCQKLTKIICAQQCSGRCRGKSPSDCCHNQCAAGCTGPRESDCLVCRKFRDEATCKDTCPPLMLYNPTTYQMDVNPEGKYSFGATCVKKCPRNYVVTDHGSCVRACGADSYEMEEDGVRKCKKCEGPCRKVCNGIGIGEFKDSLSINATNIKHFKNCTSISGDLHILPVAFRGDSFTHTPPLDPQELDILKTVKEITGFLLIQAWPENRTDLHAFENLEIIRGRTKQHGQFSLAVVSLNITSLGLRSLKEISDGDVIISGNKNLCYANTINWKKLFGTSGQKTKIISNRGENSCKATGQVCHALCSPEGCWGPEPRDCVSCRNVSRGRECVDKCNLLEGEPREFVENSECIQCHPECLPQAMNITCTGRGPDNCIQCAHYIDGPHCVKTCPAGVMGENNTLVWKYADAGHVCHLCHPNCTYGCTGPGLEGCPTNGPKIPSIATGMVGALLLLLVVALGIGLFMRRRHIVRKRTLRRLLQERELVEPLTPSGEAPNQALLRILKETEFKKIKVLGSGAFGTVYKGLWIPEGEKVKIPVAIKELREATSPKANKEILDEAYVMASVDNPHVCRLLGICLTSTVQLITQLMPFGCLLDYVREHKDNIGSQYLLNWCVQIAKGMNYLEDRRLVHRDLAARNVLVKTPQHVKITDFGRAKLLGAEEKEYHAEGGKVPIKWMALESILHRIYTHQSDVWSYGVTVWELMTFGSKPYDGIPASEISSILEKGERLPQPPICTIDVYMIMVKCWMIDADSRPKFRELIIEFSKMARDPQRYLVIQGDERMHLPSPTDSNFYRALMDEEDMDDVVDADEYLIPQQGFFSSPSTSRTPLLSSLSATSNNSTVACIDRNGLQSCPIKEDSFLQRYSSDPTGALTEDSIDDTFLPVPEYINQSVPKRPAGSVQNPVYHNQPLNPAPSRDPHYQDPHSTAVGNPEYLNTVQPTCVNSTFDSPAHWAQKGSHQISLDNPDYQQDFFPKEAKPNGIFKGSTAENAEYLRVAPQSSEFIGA
Chain of human EGFR L858R (NIH/3T3 cells) (P00533 25-1210 L858R): as above
Chain of human EGFR WT (NIH/3T3 cells, EGF-induced) (P00533 25-1210): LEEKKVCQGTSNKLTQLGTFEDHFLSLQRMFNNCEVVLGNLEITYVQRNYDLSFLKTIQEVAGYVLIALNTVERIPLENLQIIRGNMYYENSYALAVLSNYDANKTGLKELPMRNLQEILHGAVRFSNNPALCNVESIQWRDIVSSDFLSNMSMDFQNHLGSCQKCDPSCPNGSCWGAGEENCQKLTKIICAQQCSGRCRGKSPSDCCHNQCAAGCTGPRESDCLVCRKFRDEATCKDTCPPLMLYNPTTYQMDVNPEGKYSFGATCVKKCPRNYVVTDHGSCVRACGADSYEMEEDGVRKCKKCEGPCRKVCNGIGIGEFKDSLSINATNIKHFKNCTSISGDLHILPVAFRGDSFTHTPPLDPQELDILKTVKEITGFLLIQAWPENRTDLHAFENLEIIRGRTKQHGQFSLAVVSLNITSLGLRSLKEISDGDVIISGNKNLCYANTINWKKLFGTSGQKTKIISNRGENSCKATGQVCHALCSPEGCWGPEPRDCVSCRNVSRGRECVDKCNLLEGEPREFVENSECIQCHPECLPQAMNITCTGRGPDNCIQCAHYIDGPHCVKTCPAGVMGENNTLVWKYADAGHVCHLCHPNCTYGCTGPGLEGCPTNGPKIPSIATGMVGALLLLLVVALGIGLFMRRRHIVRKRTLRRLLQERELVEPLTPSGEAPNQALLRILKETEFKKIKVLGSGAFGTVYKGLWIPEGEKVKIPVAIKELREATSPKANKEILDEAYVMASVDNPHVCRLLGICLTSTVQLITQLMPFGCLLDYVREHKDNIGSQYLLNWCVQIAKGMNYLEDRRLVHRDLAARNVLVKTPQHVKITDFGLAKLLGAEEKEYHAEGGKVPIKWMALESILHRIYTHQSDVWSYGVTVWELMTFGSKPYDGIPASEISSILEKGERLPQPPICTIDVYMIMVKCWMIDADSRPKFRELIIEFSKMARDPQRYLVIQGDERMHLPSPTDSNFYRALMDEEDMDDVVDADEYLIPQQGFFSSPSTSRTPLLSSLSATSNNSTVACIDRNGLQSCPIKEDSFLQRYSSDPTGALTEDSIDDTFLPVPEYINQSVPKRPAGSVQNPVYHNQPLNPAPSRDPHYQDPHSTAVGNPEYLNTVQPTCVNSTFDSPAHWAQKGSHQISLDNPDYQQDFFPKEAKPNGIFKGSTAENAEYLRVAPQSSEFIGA
Chain of HEKn (EGFR WT) (P00533 25-1210): as above

IC50 (H1975 (EGFR L858/T790M)) [nM]	IC50 (H3255 (EGFR L858R)) [nM]	IC50 [1] [µM]	IC50 (HEKn (EGFR WT)) [nM]	IC50 (EGFR(L858R/T790M); [4]) [µM]	IC50 (EGFR(L858R/T790M); [5]) [µM]	IC50 [2] [µM]	IC50 [3] [µM]	SMILES
26	85	0.025	3140	< 0.001	0.017	0.218	0.007	COc1cc(C(=O)Nc2nc3cccc(C)c3n2[C@@H]2CCCCN(C(=O)/C=C/CN(C)C)C2)cc(Cl)n1 [Example 17-75]
76	170	0.018	2340	0.002	0.018	0.38	0.015	COc1ccc2nc(NC(=O)c3ccnnc3)n([C@@H]3CCCCN(C(=O)/C=C/CN(C)C)C3)c2c1Cl [Example 17-2]
8	13		620	< 0.001	0.006			Cc1cc(C(=O)Nc2nc3cccc(C)c3n2[C@@H]2CCCCN(C(=O)/C=C/CN3CC[C@@H](F)C3)C2)ccn1 [Example 3-10]
12	57	0.03	710	0.004	0.04	0.45	0.008	C=CC(=O)N1CCCC[C@@H](n2c(NC(=O)c3ccnnc3)nc3cccc(OC(C)C)c32)C1 [Example 17-86]
9	11	0.006	720	< 0.001	0.007	0.303	0.006	Cc1cc(C(=O)Nc2nc3cccc(Cl)c3n2[C@@H]2CCCCN(C(=O)/C=C/CN3CC[C@H](F)C3)C2)ccn1 [Example 3-2]
6	7	0.003	340	< 0.001	0.005	0.235	0.004	Cc1cc(C(=O)Nc2nc3cccc(Cl)c3n2[C@@H]2CCCCN(C(=O)/C=C/CN3CC[C@@H](F)C3)C2)ccn1 [Example 3-1]
29	72	0.022	2330	0.001	0.02	0.6	0.027	COc1cccc2nc(NC(=O)c3ccnnc3)n([C@@H]3CCCCN(C(=O)/C=C/CN(C)C)C3)c12 [Example 17-83]
7	9	0.005	225	< 0.001	0.006	0.094	0.006	Cc1cccc2nc(NC(=O)c3ccnnc3)n(C3CCCCN(C(=O)/C=C/CN(C)C)C3)c12 (stereo not drawn) [Example 17-24]
3	8	0.008	152	< 0.001	0.006	0.101	0.002	C=CC(=O)N1CCCC[C@@H](n2c(NC(=O)c3ccnnc3)nc3ccc(OC)c(Cl)c32)C1 [Example 9, (R)—N-(1-(1-acryloylazepan-3-yl)-7-chloro-6-methoxy-1H-benzo[d]imidazol-2-yl)pyridazine-4-carboxamide]
1	2	0.001	45	< 0.001	0.002	0.031	< 0.001	C=CC(=O)N1CCCC[C@@H](n2c(NC(=O)c3ccnnc3)nc3cccc(C)c32)C1 [Example 17-94]
7	3	0.002	142	< 0.001	0.006	0.057	0.003	COc1ccc(C(=O)Nc2nc3cccc(C)c3n2C2CCCCN(C(=O)/C=C/CN(C)C)C2)cn1 (stereo not drawn) [Example 17-45]
22	490	0.271	> 10000	0.008	0.2	> 10	0.023	C=CC(=O)N1CCC[C@@H](n2c(NC(=O)c3cccc(C(F)(F)F)c3)nc3cc(COCCOC)ccc32)C1 [Example 17-124]
3	8	0.008	176	< 0.001	0.004	0.211	0.005	C=CC(=O)N1CCCC[C@@H](n2c(NC(=O)c3ccnc(C)c3)nc3cccc(Cl)c32)C1 [Example 17-17]
1	2	0.001	82			0.021	0.001	Cc1cccc2nc(NC(=O)c3ccnc(C(F)(F)F)c3)n([C@@H]3CCCCN(C(=O)/C=C/CN(C)C)C3)c12 [Example 8, (R,E)-N-(1-(1-(4-(dimethylamino)but-2-enoyl)azepan-3-yl)-7-methyl-1H-benzo[d]imidazol-2-yl)-2-(trifluoromethyl)isonicotinamide]
7	9		169	< 0.001	0.005			O=C(Nc1nc2cccc(Cl)c2n1[C@@H]1CCCCN(C(=O)/C=C/CN2CC[C@@H](F)C2)C1)c1ccnnc1 [Example 3-11]
1	17		237	< 0.001	0.007			C=CC(=O)N1CCCC[C@@H](n2c(NC(=O)c3cccc(F)c3F)nc3cc(CN4CC[C@@H](OC)C4)cc(C)c32)C1 [Example 17-160]
4	4		93	< 0.001	0.003			COc1ccc2nc(NC(=O)c3ccnc(C)c3)n([C@@H]3CCCCN(C(=O)/C=C/CN(C)C)C3)c2c1Cl [Example 17-177]
234	188		5400	0.012	0.23			COc1cc2nc(NC(=O)c3cc(C)nc(C)c3)n([C@@H]3CCCCN(C(=O)/C=C/CN(C)C)C3)c2cc1Cl [Example 17-179]
		0.004		< 0.001	0.003	0.149	0.003	Cc1cccc2nc(NC(=O)c3cccnc3)n(C3CCCCN(C(=O)/C=C/CN(C)C)C3)c12 (stereo not drawn) [Example 17-23]
